{"source": "patent US8586307B2", "about": "“Methods for diagnosing epigenetic, transgenerational effects of environmental toxicants on mammalian germ-lines and treating associated diseases” (priority 2005, dated 2013)", "key": {"[1]": {"tested_on": "DNA isolated from P6 testis or epididymal sperm", "experiment": "Methylation sensitive restriction enzyme PCR (MSRE-PCR) DNA methylation analysis", "type": "in vivo, rat", "procedure": "DNA Methylation Assays: The methylation status of DNA, isolated from control and endocrine disruptor treated P6 testis, or epididymal sperm, used a combination of methylation sensitive restriction enzymes, and a PCR approach, previously described. Briefly, isolated genomic DNA was incubated and digested with RsaI, with either methylation sensitive (HpaII), or insensitive (MspI) restriction enzymes, followed by PCR, with 10 primer sets designed to amplify methylation sites. PCR products were electrophoretically separated, and visualized by Sybr green staining (Molecular Probes, Eugene, Oreg.), and effects of endocrine disruptors, were determined by the presence or absence of specific bands. The PCR products of interest were isolated, cloned and sequenced to determine chromosomal location by BLAST Genbank analysis. P6 testis analysis was repeated using 4 animals from different litters.\nDNA methylation assay: The methylation state of the DNA isolated from CDF control and vinclozolin generation epididymal sperm was determined using a combination of methylation sensitive restriction enzymes and PCR procedures (MSRE-PCR) described above in Example I. Briefly, genomic DNA was isolated from sperm samples using the DNeasy Tissue Kit (Quiagen, Valencia, Calif.). Two micrograms each of control and vinclozolin generation sperm DNA were separately digested with RsaI and either methylation-sensitive enzyme HpaII or insensitive MspI enzymes, followed by PCR with specific primer sets (Table 1). PCR products were electrophoretically separated on polyacrylamide gels and visualized by ethidium bromide staining. The PCR products (i.e. bands) that were reproducibly absent or present between control and vinclozolin generation sperm DNA were excised from stained gels, re-amplified with the same PCR primer set, and then cloned and sequenced. The DNA sequence and chromosomal location were determined using the NCBI Rat genomic databank BLAST system.\nGenomic DNA and Methylation Sensitive Restriction Enzyme PCR: Genomic DNA was isolated from the different control and vinclozolin F1-F3 generation epididymal sperm samples. A total of 1 μg of genomic DNA was digested using methylation-sensitive HpaII or AciI enzymes (37° C., 6-12 hr). The digested DNA was precipitated and dissolved in 30 μl of dH2O. Then, 3 μl aliquots were analyzed by PCR in 30 μl reactions with specific primers (Table 1), subjected to 25 cycles, and the PCR products electrophoretically separated on 1.5% agarose. The differences between the control and vinclozolin F1-F3 generation sperm samples were determined for selected genes found to have high optimal digestion capacity."}, "[2]": {"tested_on": "vinclozolin generation animals", "conditions": "rat, in vivo", "excerpt": "A number of the genes associated with the methylation changes identified have a relationship with various disease states, Table 3. […] Therefore, alterations in the epigenetic (DNA methylation) and/or expression of these genes is associated with a number of disease states. In addition to these correlations to previous literature, the vinclozolin generation animals develop a variety of disease states. Vinclozolin (F1-F4) generation animals between 6-12 months of age develop a variety of disease states or abnormalities, Table 4 [153]. Therefore, the vinclozolin generational animals used develop a variety of diseases, and have the altered epigenetic programming of the male germ-line. Combined observations indicate that the epigenetic alterations in the germ-line DNA and associated genes identified in this Example, are associated with a number of disease states, Tables 3 and 4."}, "NCAM1": {"tested_on": "NCAM1", "experiment": "Semi-quantitative PCR of NCAM1 expression in adult brain", "type": "in vivo, rat", "conditions": "F3 generation males vs control", "procedure": "The expression of one of the known genes nearest an altered methylation site identified candidate #1 (NCAM1), is primarily brain specific. An analysis of gene expression for NCAM in the brain was performed. Brains from adult control and vinclozolin F3 generation males were isolated, and RNA was prepared. Four control and five vinclozolin F3 generation animals were analyzed separately. […] This decreased expression of NCAM1 was quantitated, and over a 10-fold reduction in expression was observed between control and vinclozolin F3 generation males, FIG. 15C. Therefore, the hypermethylation of the candidate #1 site in sperm DNA was associated with a reduction in NCAM1 expression in the adult male brain, in vinclozolin F3 generation animals."}, "F1 generation testis": {"tested_on": "F1 generation testis", "conditions": "cited from earlier work"}, "spermatogenic cells": {"tested_on": "spermatogenic cells", "experiment": "Spermatogenic cell apoptosis in testis sections (TUNEL) after transient embryonic exposure", "conditions": "rat, in vivo", "procedure": "In Vivo Procedures: Gestating outbred Sprague-Dawley and inbred Fisher mother rats from timed, pregnant colonies housed at the Washington State University Vivarium, were given intraperitoneal injections of vinclozolin (100 mg/kg/day) and methoxychlor (200 mg/kg/day) from embryonic day 8-15 (E8-E15, sperm positive vaginal smear date=E0) of gestation (F0 generation) as previously described. Gestating mothers administered vehicle, sesame oil or DMSO, served as controls. At least 6 lines (individual F0 injected females) were generated for controls and treated groups for these analyses. Male rats from control and treated groups were collected at P60-P180 for analyses. F1 treated males were bred to F1 treated females to generate the F2 treated generation and F2 treated males were bred to F2 treated females to generate the F3 generation and the F3 were bred in the same manner to generate the F4 generation. Rats for the control groups were bred in the same manner for all the generations. No inbreeding or sibling crosses were generated. The outcross group (VOC) were generated by breeding the F2 treated males with wild-type females (total of 6 litters) and reverse outcross group (RVOC) was generated by breeding F2 treated females with wild-type males (total of 3 litters). Control (n=4) and treated (n=4) male offspring from the F1 generation from Fisher strain rats were collected at P6 for DNA methylation analysis, see below. All procedures have been approved by the Washington State University Animal Care Committee. The number of animals used for replicates in the experiments (i.e. n value) are as follows for vinclozolin treatment: F1 (control 11, treated 12); F2 (control 19, treated 30); F3 (control 19, treated 26); F4 (control 10, treated 17); VOC (18); and RVOC (6). […]\nDetection of Cell Apoptosis: To detect apoptotic cells in testis sections, the Fluorescien In Situ Cell Death Detection Kit (Roche Applied Science, Indianapolis, Ind.) was utilized. […] Fluorescent apoptotic cells were imaged on a confocal microscope and quantitation of number of apoptotic cells per testis cross section. […]"}}, "data": [{"compound": "C=CC1(C)OC(=O)N(c2cc(Cl)cc(Cl)c2)C1=O", "note": "(stereo not drawn) [vinclozolin]", "values": [{"measurement": "gene specific MSRE-PCR products for candidates #1, #14, #17/18, #27/28 and #33", "setting": "[1]; F1, F2 and F3 generation sperm DNA", "value": "PCR products were observed in all the vinclozolin generation sperm DNA samples, but not in the controls"}, {"measurement": "individual candidate DNA sequences with potential altered methylation sites", "setting": "[1]; F3 generation sperm DNA", "value": 25}, {"measurement": "candidates with potential altered DNA methylation between control and vinclozolin sperm samples", "setting": "[1]; F3 generation sperm, Fisher rats", "value": 34}, {"measurement": "different PCR products with apparent altered DNA methylation patterns", "setting": "[1]; P6 testis, F1 males, Fisher rats, n=4", "value": "Approximately 25"}, {"measurement": "animals with altered clone 17 (cytokine-inducible SH2 STAT-like protein gene) methylation in epididymal sperm", "setting": "[1]; out of 5 F3 animals", "value": 2, "unit": "animals"}, {"measurement": "animals with altered clone 17 (cytokine-inducible SH2 STAT-like protein gene) methylation in epididymal sperm", "setting": "[1]; out of 8 F2 animals", "value": 4, "unit": "animals"}, {"measurement": "Prevalence, Immune Abnormalities", "setting": "[2]", "value": 27, "unit": "%"}, {"measurement": "Prevalence, Kidney Disease", "setting": "[2]", "value": 40, "unit": "%"}, {"measurement": "Prevalence, Prostate Disease", "setting": "[2]", "value": 50, "unit": "%"}, {"measurement": "Prevalence, Testis Defect", "setting": "[2]", "value": 30, "unit": "%"}, {"measurement": "Prevalence, Tumor Development (e.g. breast)", "setting": "[2]", "value": 17, "unit": "%"}, {"measurement": "frequency at which generation animals develop disease states", "setting": "[2]", "value": "~85", "unit": "%"}, {"measurement": "reduction in NCAM1 expression", "setting": "NCAM1", "value": "> 10", "unit": "fold"}, {"measurement": "adult F1 generation testis phenotype", "setting": "F1 generation testis; gestating mother exposed E8-E15, 100 or 200 mg/kg i.p. daily", "value": "reduced spermatogenic capacity, increased spermatogenic cell apoptosis and decreased sperm number and motility"}, {"measurement": "effect on the F1 generation testis", "setting": "F1 generation testis; rat, in vivo", "value": "no effect"}, {"measurement": "males analyzed that had the increased spermatogenic cell apoptosis", "setting": "spermatogenic cells; male", "value": "Greater than 90%"}, {"measurement": "effect on the spermatogenic cells in reverse outcross (RVOC)", "setting": "spermatogenic cells", "value": "no effect"}, {"measurement": "spermatogenic cell apoptosis in outcross (VOC) males", "setting": "spermatogenic cells", "value": "increase"}]}]}
